Among the test systems are 786-0 renal; EKVX NSCLC; OVCAR-3 ovarian; OVCAR-4 ovarian; PC-3 prostate; SK-MEL-2 melanoma; SR leukemia; TK-10 renal; UACC-62 melanoma; T-47D breast.
Common to all, as to test: NCI tumour cell line growth inhibition, 48 h

Values joined by “and” are separate entries in the source; they are usually repeats but may differ in a detail not shown here. Equal values may be shown once.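 Results reflect a 48-hour exposure of cells in 96-well plates to compound at five concentrations. GI50 = concentration required for 50% inhibition of growth. TGI denotes the concentration required for complete inhibition of growth.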

Consider `Nc1nc2c(ncn2C2OC(CO)C(O)C2O)c(=O)o1` (stereo unspecified), for which the TGI in the assay on 786-0 renal, in the assay on EKVX NSCLC, with OVCAR-3 ovarian, in the assay on OVCAR-4 ovarian, in the assay with PC-3 prostate and in the assay with SK-MEL-2 melanoma was > 100 µM in each case. Further, the TGI in the assay on SR leukemia, in the assay on TK-10 renal and with UACC-62 melanoma was > 100 µM each time.
As for `N=C1C(c2nc3ccccc3c(=O)[nH]2)=C(O)CN1c1cccc(Cl)c1`, the GI50 in the assay with 786-0 renal was 4.05 µM; in the assay on EKVX NSCLC, 8.29 µM; with OVCAR-3 ovarian, 2.15 µM; in the assay with OVCAR-4 ovarian, > 23 µM; with PC-3 prostate it was 2.69 µM; in the assay on SK-MEL-2 melanoma, > 100 µM. Moreover, the GI50 in the assay on SR leukemia is 0.302 µM; in the assay with TK-10 renal it was 6.68 µM; in the assay with UACC-62 melanoma, 3.27 µM. Moreover, the TGI in the assay on 786-0 renal is > 100 µM; with EKVX NSCLC, > 100 µM; with OVCAR-3 ovarian, 5.06 µM; in the assay with OVCAR-4 ovarian, > 100 µM; in the assay with PC-3 prostate, > 29.5 µM; in the assay on SK-MEL-2 melanoma, > 100 µM. The TGI in the assay with SR leukemia was 2.68 µM; in the assay with TK-10 renal, > 50.6 µM; in the assay on UACC-62 melanoma it was > 100 µM.
`O=C1NC(c2cccc3ccccc23)Nc2ccc(Cl)cc21` (stereo unspecified): the TGI was 23.1 µM in the assay on 786-0 renal; 83.3 µM in the assay with EKVX NSCLC; 0.0151 µM and 0.0303 µM in the assay on OVCAR-3 ovarian; 0.0148 µM and 0.0143 µM in the assay with PC-3 prostate; 0.000654 µM with SR leukemia; 68.5 µM with T-47D breast. In the assay on EKVX NSCLC, the GI50 was 0.0129 µM.
For the molecule `CN1C(=O)[C@@H](CC2CCCC2)N(C2CCCC2)c2nc(Nc3cc(Cl)c(O)c(Cl)c3)ncc21`, the GI50 in the assay with 786-0 renal is 15.2 µM; in the assay with EKVX NSCLC, 22.4 µM; with OVCAR-3 ovarian, 21.8 µM; in the assay on OVCAR-4 ovarian, 25.8 µM; in the assay on PC-3 prostate, 14.1 µM; in the assay on SR leukemia, 13 µM. In addition, the values for the GI50 with T-47D breast, in the assay on TK-10 renal and with UACC-62 melanoma were 12.9 µM, 27.2 µM and 11.1 µM, respectively. Besides, the TGI is 47.2 µM in the assay on 786-0 renal; > 100 µM in the assay with EKVX NSCLC; 73.9 µM in the assay with OVCAR-3 ovarian; > 100 µM in the assay on OVCAR-4 ovarian; > 100 µM in the assay with PC-3 prostate; 62.1 µM in the assay on SR leukemia. Besides, the TGI in the assay with T-47D breast is 74.9 µM; in the assay on TK-10 renal, > 100 µM; in the assay on UACC-62 melanoma, 27.4 µM.
As to `CCCCCCCCCCCCCCCC(=O)OCC1OC(OCCCC)[C@H](O[C@@H]2OC(C)C(OC(=O)CCC)C(O)C2O)C(O)C1O` (stereo partly specified), the GI50 in the assay with 786-0 renal was 16.7 µM; with EKVX NSCLC it was 19.4 µM; with OVCAR-3 ovarian, 13.4 µM; in the assay on OVCAR-4 ovarian, 18.1 µM; in the assay on PC-3 prostate, 15.4 µM; in the assay on SK-MEL-2 melanoma it was 41.2 µM. Further, the GI50 in the assay with T-47D breast was 18.7 µM; in the assay with TK-10 renal, 15.6 µM; with UACC-62 melanoma it was 10.2 µM. For the same molecule, the TGI with 786-0 renal is 30.8 µM; in the assay with EKVX NSCLC, 36.5 µM; with OVCAR-3 ovarian it was 29.6 µM; in the assay on OVCAR-4 ovarian it was 34.2 µM; with PC-3 prostate it was 30.5 µM; in the assay on SK-MEL-2 melanoma, > 100 µM. The TGI with T-47D breast is 40 µM; with TK-10 renal, 30.2 µM; with UACC-62 melanoma, 23.6 µM.
With `COc1ccc(/C=C/C(=O)C(=O)/C=C/c2ccc(OC)c(OC)c2)cc1OC`, the GI50 was 2.28 µM with 786-0 renal; 5 µM with EKVX NSCLC; 2.84 µM in the assay on OVCAR-3 ovarian; 4.07 µM in the assay with OVCAR-4 ovarian; 3.3 µM in the assay with PC-3 prostate; 30.6 µM with SK-MEL-2 melanoma. Moreover, the GI50 in the assay on T-47D breast is 2.26 µM; in the assay on TK-10 renal, 3.83 µM; in the assay on UACC-62 melanoma, 1.92 µM. Besides, the TGI with 786-0 renal was 7.88 µM; in the assay on EKVX NSCLC, > 100 µM; in the assay with OVCAR-3 ovarian, 9.9 µM; in the assay with OVCAR-4 ovarian, > 100 µM; in the assay with PC-3 prostate, > 100 µM; in the assay on SK-MEL-2 melanoma, > 100 µM. The TGI was > 100 µM in the assay with T-47D breast, 25 µM with TK-10 renal and 4.87 µM in the assay on UACC-62 melanoma.
In the case of `O=C(CCl)N1CCN(c2ccccn2)CC1`, the TGI with 786-0 renal is 35.1 µM; with EKVX NSCLC it was 48.6 µM; in the assay with OVCAR-4 ovarian, 31 µM; in the assay with PC-3 prostate, > 100 µM; with SR leukemia, > 100 µM; with T-47D breast it was 31.7 µM. This molecule also registered a TGI in the assay with TK-10 renal of 35.8 µM.
On to `CCN1C[C@@H](C)n2c(c(O)c3c(=O)n(Cc4ccc(F)c(Cl)c4)nc(C(=O)NC)c32)C1=O`, for which the GI50 in the assay on 786-0 renal is 2.91 µM; with OVCAR-4 ovarian it was 3.18 µM; with PC-3 prostate it was 3.27 µM; in the assay with SK-MEL-2 melanoma, 2.11 µM; in the assay with SR leukemia it was 3.22 µM; in the assay with T-47D breast, 3.57 µM. In addition, the GI50 with TK-10 renal is 2.95 µM. The TGI is 8.4 µM with 786-0 renal; 44.6 µM in the assay on OVCAR-4 ovarian; 32 µM in the assay with PC-3 prostate; 4.53 µM in the assay on SK-MEL-2 melanoma; 14.8 µM with SR leukemia; > 100 µM in the assay with T-47D breast. The same molecule gave a TGI in the assay with TK-10 renal of 12.6 µM.
As for `CCN1CCCCCCCCCC(=N/O)/C(=N\O)C1`, the TGI with 786-0 renal, in the assay with EKVX NSCLC, in the assay with OVCAR-3 ovarian, in the assay with PC-3 prostate, in the assay with SR leukemia and in the assay on T-47D breast was > 100 µM throughout. Moreover, the TGI with TK-10 renal is > 100 µM.
Turning to `N#Cc1ncc(-c2ccc(C(F)(F)F)cc2)c(NC2CCCCCC2)n1`, the GI50 is 47.7 µM in the assay with 786-0 renal; 14.9 µM in the assay with OVCAR-3 ovarian; 20.1 µM in the assay on OVCAR-4 ovarian; 5.67 µM in the assay with PC-3 prostate; 16.6 µM with SR leukemia; 6 µM in the assay with T-47D breast. The GI50 in the assay with TK-10 renal is 91 µM; with UACC-62 melanoma, 24.5 µM. The TGI with 786-0 renal, with OVCAR-3 ovarian, in the assay on OVCAR-4 ovarian, in the assay with PC-3 prostate, with SR leukemia and with T-47D breast was > 100 µM in each case. The TGI in the assay with TK-10 renal and in the assay with UACC-62 melanoma was > 100 µM throughout.
As for `O=C(CCl)N1CCN(c2ccccc2)CC1`, the TGI in the assay with 786-0 renal is 29.3 µM; in the assay on EKVX NSCLC, 44.2 µM; in the assay on OVCAR-4 ovarian, 32.9 µM; in the assay on PC-3 prostate, 59.4 µM; with SR leukemia, > 100 µM; in the assay on T-47D breast, 45.8 µM. In the assay on TK-10 renal, the TGI turned out to be 34.8 µM.
As for `CCN(CC)CCN1C(=O)c2c(c3c4cccc(Cl)c4n(C4OC(CO)C(OC)C(O)C4O)c3c3[nH]c4c(Cl)cccc4c23)C1=O` (stereo unspecified), the GI50 was < 0.0001 µM in the assay on 786-0 renal; 0.00103 µM and < 0.01 µM in the assay with SK-MEL-2 melanoma; < 0.0001 µM with SR leukemia; 0.000111 µM and < 0.0264 µM and < 0.01 µM in the assay on UACC-62 melanoma. The molecule further returned a TGI in the assay on T-47D breast of 2.26 µM.
With `Cc1ccc2c(-c3ccnc(Nc4cccc(C(F)(F)F)c4)n3)c(-c3ccccc3)nn2n1`, the GI50 in the assay on 786-0 renal was 4.67 µM; with EKVX NSCLC, 10.5 µM; in the assay on OVCAR-3 ovarian, 5.73 µM; in the assay with OVCAR-4 ovarian, 12 µM; in the assay with PC-3 prostate it was > 13 µM; in the assay on SK-MEL-2 melanoma, 6.28 µM. For the same molecule, the GI50 with T-47D breast was 6.95 µM; in the assay on TK-10 renal, 3.57 µM; with UACC-62 melanoma, 6.38 µM. Besides, the TGI in the assay with 786-0 renal was > 15.1 µM; in the assay with EKVX NSCLC, > 25 µM; with OVCAR-3 ovarian it was > 18.8 µM; with OVCAR-4 ovarian, > 25 µM; with PC-3 prostate, > 25 µM; with SK-MEL-2 melanoma, 14.3 µM. Further, the TGI is > 23.7 µM with T-47D breast, 11.4 µM with TK-10 renal and > 16.1 µM in the assay with UACC-62 melanoma.
With `COc1cc(C(=O)/C=C/c2cccnc2Nc2ccc(Cl)cc2)cc(OC)c1OC`, the GI50 in the assay with 786-0 renal is 1.46 µM; in the assay with EKVX NSCLC it was 1.61 µM; with OVCAR-3 ovarian, 1.31 µM; in the assay on OVCAR-4 ovarian, 1.51 µM; in the assay with PC-3 prostate, 1.44 µM; in the assay on SK-MEL-2 melanoma it was 2.01 µM. The GI50 in the assay with T-47D breast is 1.42 µM; in the assay on TK-10 renal, 1.87 µM; with UACC-62 melanoma, 1.54 µM. The TGI in the assay with 786-0 renal turned out to be 2.78 µM; with EKVX NSCLC, 3.16 µM; in the assay with OVCAR-3 ovarian, 2.62 µM; with OVCAR-4 ovarian it was 2.98 µM; in the assay with PC-3 prostate, 3.33 µM; with SK-MEL-2 melanoma it was 4.11 µM. Also, the TGI in the assay on T-47D breast came to 3.24 µM; in the assay on TK-10 renal, 3.35 µM; in the assay on UACC-62 melanoma, 2.98 µM.
In the case of `N#C/C(=C\c1ccc(O)c(O)c1)C(=O)NCc1cccc(C(F)(F)F)c1`, the GI50 is 19 µM with 786-0 renal; 13.7 µM with EKVX NSCLC; 15.1 µM in the assay on OVCAR-4 ovarian; 19.7 µM with PC-3 prostate; 0.115 µM in the assay with SK-MEL-2 melanoma; 13.3 µM in the assay on T-47D breast. The GI50 in the assay on TK-10 renal is 1.31 µM; in the assay with UACC-62 melanoma, 10.2 µM. Further, the TGI is 45.5 µM with 786-0 renal; 39.8 µM in the assay with EKVX NSCLC; 74.4 µM in the assay on OVCAR-4 ovarian; > 100 µM with PC-3 prostate; 2.98 µM in the assay with SK-MEL-2 melanoma; 84.5 µM in the assay with T-47D breast. The TGI is 6.43 µM in the assay with TK-10 renal and 23.8 µM with UACC-62 melanoma.

Values taken from PubChem BioAssay (NCI).
